“And” between values parts separate entries of the source, which are not always exact repeats. Identical values can stand only once. Each block holds one substance with its values, some of them ahead of it. Numbered stars: 1 amine (or outer) side, 2 acyl side, 3 side chain; on linkers, the order of the positions; unused ones are H or OH. Square brackets hold non-standard residues; d marks the D form. * marks the point of attachment. Dab(5-FAM) = O=C(NCC[C@H](N[*:1])C(=O)[*:2])c1ccc2c(c1)C(=O)OC21c2ccc(O)cc2Oc2cc(O)ccc21; EDANS = O=S(=O)(O)c1cccc2c(NCCN*)cccc12; DABCYL = DABCYL quencher; GABA = NCCCC(=O)O
Key:
MMP-9 [1] = settings: at 37° C., pH 7.64; cited from earlier work
Target sequence in this assay (P14780 94-707, species assumed): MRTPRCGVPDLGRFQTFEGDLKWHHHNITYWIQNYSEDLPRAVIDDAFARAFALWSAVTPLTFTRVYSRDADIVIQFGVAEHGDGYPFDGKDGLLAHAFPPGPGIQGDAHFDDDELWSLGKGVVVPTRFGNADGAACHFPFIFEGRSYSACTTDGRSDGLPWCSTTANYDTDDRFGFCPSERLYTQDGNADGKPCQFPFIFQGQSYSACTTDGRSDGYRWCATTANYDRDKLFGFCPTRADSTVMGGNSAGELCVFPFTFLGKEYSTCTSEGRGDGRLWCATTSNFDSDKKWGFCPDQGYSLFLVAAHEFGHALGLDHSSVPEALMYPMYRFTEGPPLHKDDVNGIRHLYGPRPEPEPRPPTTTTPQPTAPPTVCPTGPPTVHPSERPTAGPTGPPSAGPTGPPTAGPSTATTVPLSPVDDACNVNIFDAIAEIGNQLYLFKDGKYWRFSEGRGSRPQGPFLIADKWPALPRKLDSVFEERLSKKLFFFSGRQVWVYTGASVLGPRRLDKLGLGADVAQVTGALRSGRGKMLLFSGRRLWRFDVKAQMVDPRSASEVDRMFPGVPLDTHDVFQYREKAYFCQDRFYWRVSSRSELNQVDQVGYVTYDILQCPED

MMP-3 = MMP-3 (Homo sapiens, UniProt P08254); settings: at 37° C., pH 7.64; cited from earlier work
MMP-3, sequence (P08254 100-477, species assumed): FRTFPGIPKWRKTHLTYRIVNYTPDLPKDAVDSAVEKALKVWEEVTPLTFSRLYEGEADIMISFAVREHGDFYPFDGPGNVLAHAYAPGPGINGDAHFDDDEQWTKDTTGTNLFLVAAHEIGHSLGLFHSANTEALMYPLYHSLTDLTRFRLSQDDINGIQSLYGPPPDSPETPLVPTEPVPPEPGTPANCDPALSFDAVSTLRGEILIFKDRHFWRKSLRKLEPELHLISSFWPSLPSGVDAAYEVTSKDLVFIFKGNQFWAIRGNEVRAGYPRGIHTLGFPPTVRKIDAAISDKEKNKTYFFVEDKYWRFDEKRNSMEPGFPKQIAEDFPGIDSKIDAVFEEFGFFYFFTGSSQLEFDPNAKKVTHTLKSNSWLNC

MMP-2 = molecular target: T1, MMP-2 (Homo sapiens, UniProt P08253); settings: at 37° C., pH 7.64; cited from earlier work
T1 sequence (P08253 110-660): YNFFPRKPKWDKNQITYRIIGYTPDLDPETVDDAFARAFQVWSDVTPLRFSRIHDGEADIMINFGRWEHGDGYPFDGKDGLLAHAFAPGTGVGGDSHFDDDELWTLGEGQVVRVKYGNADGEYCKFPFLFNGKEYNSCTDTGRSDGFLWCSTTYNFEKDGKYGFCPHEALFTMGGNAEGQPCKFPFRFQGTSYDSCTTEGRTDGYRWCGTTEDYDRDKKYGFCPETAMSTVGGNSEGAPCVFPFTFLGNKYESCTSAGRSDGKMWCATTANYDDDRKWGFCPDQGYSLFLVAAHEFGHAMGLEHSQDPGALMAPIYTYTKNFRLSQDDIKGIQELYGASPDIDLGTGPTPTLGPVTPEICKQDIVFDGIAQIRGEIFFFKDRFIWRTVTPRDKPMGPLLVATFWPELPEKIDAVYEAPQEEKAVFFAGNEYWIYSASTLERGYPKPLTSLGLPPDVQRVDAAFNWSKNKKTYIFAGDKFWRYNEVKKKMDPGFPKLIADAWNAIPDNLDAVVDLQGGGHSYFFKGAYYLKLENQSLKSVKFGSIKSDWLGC

MMP-1 = molecular target: T2, MMP-1 (Homo sapiens, UniProt P03956); settings: at 37° C., pH 7.64; cited from earlier work
T2 sequence (P03956 100-469): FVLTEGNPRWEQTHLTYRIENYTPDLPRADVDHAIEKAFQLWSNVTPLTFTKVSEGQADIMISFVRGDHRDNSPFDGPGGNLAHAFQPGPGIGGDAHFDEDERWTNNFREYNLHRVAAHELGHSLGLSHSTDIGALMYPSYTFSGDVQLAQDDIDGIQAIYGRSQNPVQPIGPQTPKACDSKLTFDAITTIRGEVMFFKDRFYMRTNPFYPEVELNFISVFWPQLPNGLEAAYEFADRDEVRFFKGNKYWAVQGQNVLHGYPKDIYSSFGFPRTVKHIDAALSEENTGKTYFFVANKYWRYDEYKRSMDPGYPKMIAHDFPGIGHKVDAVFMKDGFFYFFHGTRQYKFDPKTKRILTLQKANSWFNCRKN

substrate TNO211 [2] = test: Study #1: time-to-detection of protease activity, cleavage of substrate TNO211 by fluorescence; format: biochemical; settings: protease concentrations ≦100 ng/ml
Method: 1. Prepare a suitable standard curve diluted in enzyme buffer. Typically, a maximum of 50 ng/ml final protease concentration in the assay is used. Keep on ice until use.
2. Prepare the substrate solution by diluting the Stock Reconstituted Substrate (in DMSO) to 5.56 uM in the desired Assay Buffer (EDTA-free or EDTA-containing) to produce 90 ul of total EDTA-free or EDTA-containing Assay Buffer per well.
3. Pipette 90 ul substrate solution into each well to be assayed.
4. Take an initial fluorescence reading. To minimize interference due to the fluorescence of endogenous proteins in the samples, we routinely use excitation/emission wavelengths of 355/535 nm, respectively.
5. Pipette 10 ul standards, samples, or Enzyme Buffer (BLANK) into each well of the 96-well fluorescence assay plate.
6. Measure the change in fluorescence continuously until the standard range of interest is sufficiently resolved. Protect from light at RT or 37° C. between measurements.
7. Determine the best-fit curve relating the Change in Fluorescence (AF) vs.
[Protease]. […]
One hundred, 10, 1, and 0.1 ng of pronase, MMP-2, MMP-9, and clostridial collagenase were assayed in a total reaction volume of 100 ul for cleavage of substrate TNO211 as detected by fluorescence. The reactions were monitored for approximately one hour after the addition of the proteases.

MMP-9 [3] = test: 5-FAM FRET peptide assay with pure recombinant MMP-9; format: biochemical; settings: pure MMP-9 activity near the threshold of Ladwig et al.
Method: Peptide: Two vials of Anaspec, Inc.'s FRET peptide XV (1646.1 g/mol; 100 pg each; Sequence: QXL™520-y-Abu-Pro-Gln-Gly-Leu-Dab(5-FAM)-Ala-Lys-NH (SEQ ID NO:3)) were reconstituted with 60.7 pL of dimethyl sulfoxide (DMSO) to create a stock solution with a concentration of 1.0 mM. A 2× (50 pM) working solution was generated by diluting the 1.0 mM stock in MMP Assay Buffer 20-fold. Each reaction will be 20 pL at final volume requiring at least 0.5 pL of 1.0 mM stock, 9.5 pL of MMP assay buffer and 10 pL of sample per reaction.
Matrix Metalloprotease 9 (aka Gelatinase B): Recombinant active pure MMP-9 from Calbiochem (Cat# PF024; 83 kDa form) in a concentration of 100 ng/mL was used to create 40 pL working solutions at 2× concentration (4× reactions per concentration).
The protease was ˜30 pL of 10 pg/mL MMP-9 (86 kDa form). The substrate was ˜60 μL of 50 μCM 5-FAM/QXL520 FRET Peptide (Fluorescein based TNO211). So the final protease concentration is ˜3.33 μg/mL with ˜33.3 μM.
After the plate-based validation, the leftover substrate and protease were used to test the system in a microcentrifuge tube. A signal visible with a handheld cyan led flashlight was present within 10 minutes. The signal was visible under normal lighting conditions, but the signal is enhanced with the lights out or with the tube shielded.
Target sequence in this assay (P14780 107-707 limits assumed): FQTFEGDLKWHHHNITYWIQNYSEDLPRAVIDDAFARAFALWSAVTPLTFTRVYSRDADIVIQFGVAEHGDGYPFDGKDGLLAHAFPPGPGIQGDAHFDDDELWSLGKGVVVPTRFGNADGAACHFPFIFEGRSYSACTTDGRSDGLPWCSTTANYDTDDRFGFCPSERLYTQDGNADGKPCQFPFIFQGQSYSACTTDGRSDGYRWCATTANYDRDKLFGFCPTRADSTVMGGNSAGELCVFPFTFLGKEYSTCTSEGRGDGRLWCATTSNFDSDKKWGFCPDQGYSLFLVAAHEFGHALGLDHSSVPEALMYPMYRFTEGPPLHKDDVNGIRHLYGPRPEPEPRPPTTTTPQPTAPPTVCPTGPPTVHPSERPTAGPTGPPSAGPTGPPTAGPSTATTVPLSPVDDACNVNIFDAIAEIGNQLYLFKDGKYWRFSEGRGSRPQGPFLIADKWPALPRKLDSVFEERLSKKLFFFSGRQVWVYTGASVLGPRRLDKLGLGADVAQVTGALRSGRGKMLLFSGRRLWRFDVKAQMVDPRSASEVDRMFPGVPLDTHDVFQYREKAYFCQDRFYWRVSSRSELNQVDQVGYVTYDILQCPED

substrate TNO211 [4] = test: Study #3: protease detection sensitivity, visual detection under UV; format: biochemical; settings: within 10 minutes; from 17% and 28% of pronase activity
Method: To investigate the visual detection limits of pronase, standard curves (1000-0 ng) of the protease were reacted in 50, 100, and 200 uM substrate diluted in the assay buffer. Digital photographs were taken under white light and UV. These observations were compared to those obtained quantitatively using the fluorescence plate reader. The observed detection limits for pronase were used to calculate theoretical detection limits for MMP-2 and MMP-9 (17% and 28% as active as pronase, respectively).

pronase = settings: 23° C., 30 min, 100 tM substrate
Method: The biotinylated fluoreceinated peptide #15 was reconstituted to a concentration of 10 mM in DMSO to serve as a stock solution. […] The 10 mM stock was further diluted to a 1 mM working stock. The final in-reaction concentration of substrate was 100 tM, which was chosen based on visual/fluorescent appearance of the diluted sample.
Three reactions were run, a negative control which contained no protease, a tube which contained 10 tg/mL, and a tube that contained 100 tg/mL.
All three tubes were shaken at room temperature (23° C.) for 30 min, then 30 μL of 500 mM EDTA was added to quench the metalloproteases. Then the reactions were immediately added to 10 kDa cut-off centrifuge filters to physically remove all proteases. This step required two separate filters per sample as the protein content was high enough to “clog” the filter after about half of the volume as filtered. The unfiltered volume was removed from the “clogged” filter and placed into a fresh filter.
Six handee spin columns were prepared in advance by loading 200 tL of the streptavidin agarose suspension (approximately 1:1 bead:buffer) and then centrifuging to remove the buffer. Upon completion of the protease removal step, the filtered volume was placed in a handee spin column loaded with ˜100 tL of a high-capacity streptavidin agarose and the volumes were well mixed by pipetting action. […]

Substance: DABCYL-GABA-Pro-Gln-Gly-Leu-Glu(EDANS)-Ala-Lys-NH2 ({DABCYL-GABA}-PQGLE(EDANS)AK-NH2) [TNO211]
kcatKm (MMP-9 [1]): 206,000 M^−1s^−1 | kcatKm (MMP-3): 40,000 M^−1s^−1 | kcatKm (MMP-2): 619,000 M^−1s^−1 | kcatKm (MMP-1): 21,000 M^−1s^−1

Substance: collagenase
activity as % of pronase's observed activity (substrate TNO211 [2]): 2±1%

Substance: QXL™520-y-Abu-Pro-Gln-Gly-Leu-Dab(5-FAM)-Ala-Lys-NH ({QXL520-GABA}-PQGL[Dab(5-FAM)]AK-NH2) [Anaspec XV]
time to generate a signal (MMP-9 [3]): ≤ 10 min

activity as % of pronase's observed activity (substrate TNO211 [2]): 28±3% and 28% | theoretical detection limit calculated from pronase limit (substrate TNO211 [4]): ~450 ng
Substance: MMP-9: Matrix Metalloprotease 9, protease assayed for cleavage of substrate TNO211

Substance: Biotin-aAbu-Pro-Gln-Gly-Leu-Lys(5FAM)-Ala-Lys-NH2 [Peptide #15]
cleavage kinetics (pronase): favorable kinetics

— patent publication US20080176263A1, “Materials and Methods for Efficient and Accurate Detection of Analytes” (University of Florida Research Foundation, Inc., priority 2006, published 2008)
